# Laboratory results as given in publication PMC9230030, “Discovery of a Multifunctional Octapeptide from Lingzhi with Antioxidant and Tyrosinase Inhibitory Activity” (Pharmaceuticals, 2022).
# Ends that are not written are not given here.
# Tests used:
# [1] = Ferric reducing antioxidant power (FRAP) assay; details: octapeptide 1 mg/mL, 10 µL; 30 min room temperature in the dark, absorbance 593 nm; mean ± SD, n = 3
# Description: Since the antioxidant activity of a substance should be determined by different assays to study the radical scavenging mechanisms, the in vitro radical scavenging potential of the synthesized octapeptide was determined by three different common methods: 2,2-diphenyl-1-picrylhydrazyl (DPPH), 2,2′-azino-bis(3-ethylbenzothiazoline-6-sulfonate) (ABTS), and ferric reducing antioxidant power (FRAP) assays. […] The scavenging activities were calculated to be 0.121 ± 0.01 AsEAC and 0.173 ± 0.03 GaEAC for the DPPH and the ABTS assay, respectively.
# For the DPPH scavenging activity, 10 µL of the octapeptide (1 mg/mL) was mixed with 200 µL DPPH solution (0.2 mM in methanol). […] The DPPH scavenging activity of the samples was expressed as the ascorbic acid equivalent antioxidant capacity (AsEAC). For the ABTS scavenging activity, ABTS radical solution (7 mM ABTS stock solution with 2.45 mM potassium persulfate) was diluted in 5 mM phosphate buffer saline (Gibco, Waltham, MA, USA), pH 7.4, to acquire an absorbance of 0.50 at 734 nm before performing the assay. […] The absorbance of the mixture was evaluated at 734 nm. The ABTS scavenging activity of the samples was expressed as the gallic equivalent antioxidant capacity (GaEAC). […] The absorbance was measured at 593 nm. The FRAP scavenging activity of the samples was expressed as FeSO4 molar equivalents.
# mushroom tyrosinase = assay: In vitro tyrosinase inhibition assay (dopachrome, absorbance at 475 nm); type: biochemical; details: octapeptide 0.05 mg/mL
# Description: To understand how the octapeptide modulates melanogenic enzymes, the activity of tyrosinase in the presence of the peptide was measured by the colorimetric assay. We used the time-dependent assay to confirm that the inhibition reaction occurred with dopachrome accumulation (absorbance at 475 nm). The time-dependent tyrosinase inhibition and the inhibition percentage of the octapeptide at a 50 ug/mL concentration are shown in Figure 2. The inhibitory effect of the octapeptide was determined against mushroom tyrosinase. The mixture of 10 µL of tyrosinase (20 enzyme unit/mL) in 50 mM phosphate buffer, pH 6.8, was added to 96-well plates containing 10 µL of the octapeptide (final concentration = 0.05 mg/mL), then 180 µL of 1 mM L-DOPA was added to start the reaction. […] Monitoring the inhibitory activity by measuring the absorbance at 475 nm for 60 min in a kinetic manner (reading every 1 min) using a microplate reader (Synergy H1, Biotek Inc., Winooski, VT, USA). The tyrosinase inhibitory activity was expressed as a percentage of inhibition at the end-point reaction (t = 60 min) by the equation. […] where Abssample is the absorbance of the reaction with the octapeptide and Absblank denotes the absorbance of the reaction without the testing sample (a buffer in each assay was added instead of the testing sample).
# [2] = tested on: Ras-related protein Rab-7L1; Rab29; assay: Targeted proteomics in melanoma cells: Rab29; type: cell-based, Mus musculus; details: melanoma cells treated with octapeptide 50 μg/mL, 48 h, vs control; LC-MS/MS proteomics
# Description: (§1) Although using the tyrosinase enzyme extracted from a mushroom for an in vitro tyrosinase inhibitory assay has been widely studied as a routine screening for tyrosinase inhibition, tyrosinase from the mushroom is located in the cytoplasm and is different from the mammalian tyrosinase that is found on the membrane of melanocytes. Therefore, cell-based assays are also usually utilized to identify the potential tyrosinase inhibitor. In our study, the effects of the octapeptide at 50 μg/mL in melanoma cells was investigated by a proteomics approach. […]
# (§2) The Mus musculus skin melanoma cell line (B16-F10 ATCC, CRL-6475) and Cercopithecus aethiops kidney normal cell line (Vero ATCC, CCL-81) were used to explore the cell cytotoxicity. The effect of the octapeptide on the skin was evaluated in skin carcinoma cells. […] The cell viability was analyzed using the MTT (3-(4,5-dimethylthiazol-2-yl)-2,5-diphenyltetrazolium bromide) assay. […] After incubation for 24 h, the cell viability was measured by the optical absorbance at 630 and 570 nm using a microplate reader and transformed into the percentage of cell survival. […]
# (§3) The mzXML data were evaluated by the relative comparison of the peak intensities of each peptide ion in all datasets by DeCyder MS Differential Analysis software version 2.0 (GE Healthcare Co., Boston, MA, USA). […]
# [3] = tested on: L-dopachrome tautomerase; Dct; assay: Targeted proteomics in melanoma cells: Dct; type: cell-based, Mus musculus; details: melanoma cells treated with octapeptide 50 μg/mL, 48 h, vs control; LC-MS/MS proteomics
# Description: as §1, §2, §3
# [4] = tested on: 5,6-dihydroxyindole-2-carboxylic acid oxidase; Tyrp1; assay: Targeted proteomics in melanoma cells: Tyrp1; type: cell-based, Mus musculus; details: melanoma cells treated with octapeptide 50 μg/mL, 48 h, vs control; LC-MS/MS proteomics
# Description: as §1, §2, §3
sequence,measurement,setting,value
"PVRSSNCA [octapeptide, Proline-Valine-Arginine-Serine-Serine-Asparaine-Cysteine-Alanine]","FRAP reductant ability, FeSO4 molar equivalents",[1],2.21 ± 0.23 mM equivalent to FeSO4
same,tyrosinase inhibitory effect at end point (60 min),"mushroom tyrosinase; 1 mM L-DOPA, 50 mM phosphate buffer pH 6.8, 37 °C, t = 60 min, mean ± SD, n = 3",13.48 ± 2.12%
same,tyrosinase inhibitory effect during the first 30 min of the reaction,"mushroom tyrosinase; time-dependent assay, rate similar to control",not observed
same,Relative Expression (Fold) of Rab29,[2],2.0646 Fold
same,Relative Expression (Fold) of Dct,[3],2.0460 Fold
same,Relative Expression (Fold) of Tyrp1,[4],0.5034 Fold
